Experimental data from patent US20220204473A1, “COMPOUND AS IRAK INHIBITOR” (SHANGHAI MEIYUE BIOTECH DEVELOPMENT CO., LTD., priority 2018, published 2022).

Key:
[1] = system: cytokine TNF-α in LPS-induced human PBMCs; assay: Inhibition of cytokine TNF-α in LPS-induced human PBMC (ELISA); format: cell-based; conditions: 0.1 μg/mL LPS for 4 h
Protocol: Procedures: Cytokine production in human PBMCs (peripheral blood mononuclear cells) was induced by LPS (lipopolysaccharide) in vitro, and the inhibitory effect of the compounds on induced cytokine production in human PBMCs was investigated.
Fresh human PBMC was centrifuged for 10 min at room temperature at 450×g and the supernatant was discarded. The PBMC was resuspended in complete RPMI 1640 medium.
The assay was performed in complete medium. PBMC was seeded at a density of 1×10^5 cells/well into a 96-well plate. The compounds according to the present disclosure were serially diluted in an isotonic 100% DMSO solution to 8 concentrations from 20 μM to 0.002 nM respectively, with the final DMSO concentration being 0.25%. Cells were pre-incubated with the formulated compounds for 30 min at 37° C. prior to stimulation. To induce cytokine secretion, cells were stimulated with 0.1 μg/mL LPS (Sigma, Escherichia coli O111:B4) for 4 h at 37° C. The cell culture supernatant was then separated by centrifugation at 450×g for 10 min at room temperature.
The amount of secreted TNF-α in the supernatants was determined using the human TNF-α ELISA kit according to the manufacturer's instruction.
The readings of absorbance at A450 were measured with a microplate reader SpectraMax i3x (Molecular Device) for calculating the inhibition of the compounds, and IC50 values were calculated with GraphPad Prism 7.0 software respectively.

[2] = system: IL-6 release in LPS-induced Balb/c female mice; assay: Inhibition of IL-6 release in LPS-induced Balb/c female mice; format: in vivo, mouse; design: concentration or dose not given beside the values; conditions: administered 5 h before LPS induction, serum
Protocol: Objective of the test: To determine the inhibitory effect of the compounds by measuring the plasma IL-6 concentration in a Balb/c mouse model with LPS-induced inflammation.
2.1 Prepared mouse serum samples (sample batch no. 20181218)
4.1 Reagent kit was equilibrated at room temperature (25-28° C.) for 20 min. After each detection, the remaining reagents were stored at 4° C.
4.3 Preparing reference standard: 1 vial of reference standard substance was added with labeled volume of reference standard diluent. The mixtures were incubated for 15 min at room temperature. Then the mixtures were gently mixed to completely dissolve the substance to prepare a reference standard stock at a final concentration of 1000 μg/mL.
4.4 Dilution of samples: The sample in each group was diluted by […], i.e., a 2-fold dilution with sample assay buffer followed by another two-fold dilution with standard diluent.
4.5 The diluted samples or standards of different concentrations were added into corresponding wells at 100 μL/well respectively, and a background correcting well (or a blank well) was set by adding only TMB buffer and terminating solution. The wells were sealed with a transparent film and incubated at room temperature for 120 min.
4.6 The plate was subjected to 5 washes, each with 300 μL of washing buffer for 15-30 sec. The plate was dried on thick absorbent paper after the last wash.
4.7 Biotinylated antibody was added at 100 μL/well (Note: the biotinylated antibody was prepared in advance and could be used directly without further dilution). The wells were sealed with a transparent film and incubated at room temperature for 60 min.
4.8 The plate was subjected to 5 washes, each with 300 μL of washing buffer for 15-30 sec. The plate was dried on thick absorbent paper after the last wash.
4.9 Horseradish peroxidase-labeled streptavidin was added at 100 μL/well. The wells were sealed with a white film and incubated away from light at room temperature for 20 min.
4.10 The plate was subjected to 5 washes, each with 300 μL of washing buffer for 15-30 sec. The plate was dried on thick absorbent paper after the last wash.
4.11 The chromogenic reagent TMB was added 100 μL/well. The wells were sealed with a white film and incubated away from light at room temperature for 20 min.
4.12 The terminating solution was added at 50 μL/well and A450 value was measured right after mixing.

CYP2C19 = target: T1, CYP2C19 (Homo sapiens, UniProt P33261); assay: CYP450 inhibition in human liver microsomes, CYP2C19; format: in vitro ADME; conditions: human liver microsomes, probe mephenytoin; read-out: IC50, subtype 2C19
T1 construct: tissue Corning (USA); host or cells: mixed human liver microsomes
Protocol: (§1) This study was intended to investigate the inhibitory effect of the test compounds on five major CYP450 enzyme subtypes CYP1A2, 2C9, 2C19, 2D6 and 3A4 in human liver microsomes. The mixed human liver microsomes used in this assay were purchased from Corning (USA). The test compounds were co-incubated at 7 concentrations with human liver microsomes and five probe substrates (phenacetin for CYP1a2, diclofenac for CYP2C9, mephenytoin for CYP2C19, dextromethorphan for CYP2D6, midazolam for CYP3A4-M, mixed). The reaction was initiated by adding coenzyme NADPH, and terminated by adding acetonitrile containing internal standard. After the proteins were precipitated, the supernatant was centrifuged. The characteristic metabolites in the supernatant (acetaminophen for CYP1A2, 4-hydroxydiclofenac for CYP2C9, 4-hydroxymephenytoin for CYP2C19, dextrorphan for CYP2D6, 1-hydroxymidazolam for CYP3A4-M) were analyzed by LC-MS/MS. The influence of the test compounds on production of the characteristic metabolites was finally analyzed on the basis of the data obtained. A selective inhibitor (ketoconazole for CYP3A4-M) was used as positive control. All samples were tested in duplicate.

CYP2D6 = target: T2, CYP2D6 (Homo sapiens, UniProt P10635); assay: CYP450 inhibition in human liver microsomes, CYP2D6; format: in vitro ADME; conditions: human liver microsomes, probe dextromethorphan; read-out: IC50, subtype 2D6
T2 construct: tissue Corning (USA); host or cells: mixed human liver microsomes
Protocol: as §1

CYP2C9 = target: T3, CYP2C9 (Homo sapiens, UniProt P11712); assay: CYP450 inhibition in human liver microsomes, CYP2C9; format: in vitro ADME; conditions: human liver microsomes, probe diclofenac; read-out: IC50, subtype 2C9
T3 construct: tissue Corning (USA); host or cells: mixed human liver microsomes
Protocol: as §1

CYP3A4 = target: T4, CYP3A4 (Homo sapiens, UniProt P08684); assay: CYP450 inhibition in human liver microsomes, CYP3A4; format: in vitro ADME; conditions: human liver microsomes, probe midazolam; read-out: IC50, subtype 3A4
T4 construct: tissue Corning (USA); host or cells: mixed human liver microsomes
Protocol: as §1

T3 sequence (P11712 whole entry): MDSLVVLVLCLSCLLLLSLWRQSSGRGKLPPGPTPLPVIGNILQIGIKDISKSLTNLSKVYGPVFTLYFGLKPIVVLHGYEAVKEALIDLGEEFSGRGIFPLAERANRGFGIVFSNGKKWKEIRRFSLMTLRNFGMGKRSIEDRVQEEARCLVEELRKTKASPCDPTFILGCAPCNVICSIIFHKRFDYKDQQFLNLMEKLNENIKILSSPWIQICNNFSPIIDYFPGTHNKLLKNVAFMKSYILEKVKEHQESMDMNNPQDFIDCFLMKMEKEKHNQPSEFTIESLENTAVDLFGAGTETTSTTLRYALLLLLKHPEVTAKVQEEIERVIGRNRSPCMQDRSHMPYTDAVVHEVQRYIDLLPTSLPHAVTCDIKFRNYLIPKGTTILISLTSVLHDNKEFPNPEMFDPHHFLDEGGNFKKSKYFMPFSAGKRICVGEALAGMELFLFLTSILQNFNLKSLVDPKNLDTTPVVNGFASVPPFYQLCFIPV
T4 sequence (P08684 whole entry): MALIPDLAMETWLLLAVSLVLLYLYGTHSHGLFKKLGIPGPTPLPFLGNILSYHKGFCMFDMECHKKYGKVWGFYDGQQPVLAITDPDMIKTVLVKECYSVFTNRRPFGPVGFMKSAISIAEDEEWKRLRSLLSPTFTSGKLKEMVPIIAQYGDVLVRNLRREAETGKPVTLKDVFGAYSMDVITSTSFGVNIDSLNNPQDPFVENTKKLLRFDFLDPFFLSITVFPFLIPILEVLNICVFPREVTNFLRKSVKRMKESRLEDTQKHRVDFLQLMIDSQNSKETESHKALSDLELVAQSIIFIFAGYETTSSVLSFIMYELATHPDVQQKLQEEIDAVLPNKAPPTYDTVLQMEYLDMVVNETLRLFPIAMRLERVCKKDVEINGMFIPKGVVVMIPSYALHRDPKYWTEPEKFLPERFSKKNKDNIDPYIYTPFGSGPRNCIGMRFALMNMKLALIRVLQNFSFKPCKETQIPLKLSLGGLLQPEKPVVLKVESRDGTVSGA
T2 sequence (P10635 whole entry): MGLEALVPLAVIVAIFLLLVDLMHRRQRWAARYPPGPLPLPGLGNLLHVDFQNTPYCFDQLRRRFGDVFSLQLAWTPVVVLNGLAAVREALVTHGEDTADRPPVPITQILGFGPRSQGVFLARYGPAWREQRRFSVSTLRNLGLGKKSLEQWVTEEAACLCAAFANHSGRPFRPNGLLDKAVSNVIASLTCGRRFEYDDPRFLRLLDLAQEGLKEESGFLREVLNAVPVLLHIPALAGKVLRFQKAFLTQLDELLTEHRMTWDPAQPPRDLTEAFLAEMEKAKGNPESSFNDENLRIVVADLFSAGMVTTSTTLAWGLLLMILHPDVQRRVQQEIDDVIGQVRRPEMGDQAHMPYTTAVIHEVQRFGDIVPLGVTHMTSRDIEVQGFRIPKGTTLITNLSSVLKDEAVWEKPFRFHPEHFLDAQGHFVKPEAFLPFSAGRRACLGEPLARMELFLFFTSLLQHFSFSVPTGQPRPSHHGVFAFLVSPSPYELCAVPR
T1 sequence (P33261 whole entry): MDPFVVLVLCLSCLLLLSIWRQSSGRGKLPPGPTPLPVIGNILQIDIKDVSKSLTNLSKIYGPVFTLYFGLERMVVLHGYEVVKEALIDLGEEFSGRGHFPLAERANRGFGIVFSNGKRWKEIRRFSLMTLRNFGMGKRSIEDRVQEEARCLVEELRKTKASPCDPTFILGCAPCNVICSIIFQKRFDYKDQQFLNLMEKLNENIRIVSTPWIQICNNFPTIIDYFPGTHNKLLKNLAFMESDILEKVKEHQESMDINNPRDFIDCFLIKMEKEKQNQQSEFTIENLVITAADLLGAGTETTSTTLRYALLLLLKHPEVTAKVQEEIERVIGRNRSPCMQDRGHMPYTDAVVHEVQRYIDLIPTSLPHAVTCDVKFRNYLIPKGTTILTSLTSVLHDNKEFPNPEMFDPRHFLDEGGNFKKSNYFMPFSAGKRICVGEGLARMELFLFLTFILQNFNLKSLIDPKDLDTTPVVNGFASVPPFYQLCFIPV

IC50 (CYP2C19) [µM] | IC50 (CYP2D6) [µM] | IC50 (CYP2C9) [µM] | IC50 (CYP3A4) [µM] | Compound | IC50 [1] [nM] | Inhibition rate of IL-6 [2] [%]
 |  |  |  | CN(C)c1cc2nn([C@H]3C[C@H](C(C)(C)O)C3)cc2cc1NC(=O)c1cccc(C(F)(F)F)n1 [MY-004-089] | 165 | 94.33
> 30 | > 30 | > 30 | > 30 | COc1cc2nn([C@H]3CC[C@](C)(O)CC3)cc2cc1NC(=O)c1cccc(C(F)(F)F)n1 [MY-004-126-1] | 71.8 | 97.05
 |  |  |  | COc1cc2nn([C@H]3CC[C@@](C)(O)CC3)cc2cc1NC(=O)c1cccc(C(F)(F)F)n1 [MY-004-126-2] |  | 93.39
 |  |  |  | CN(C)c1cc2nn([C@H]3CC[C@H](O)CC3)cc2cc1NC(=O)c1cccc(C(F)(F)F)n1 [MY-004-153] | 191 | 
> 30 | > 30 | 20.9 | > 30 | CC(C)(O)c1cc2nn([C@H]3CC[C@](C)(O)CC3)cc2cc1NC(=O)c1cccc(C(C)(F)F)n1 [MY-004-165] |  | 

Compound | IC50 (CYP2C19) [µM] | IC50 (CYP2D6) [µM] | IC50 (CYP2C9) [µM] | IC50 (CYP3A4) [µM] | IC50 [1] [nM] | Inhibition rate of IL-6 [2] [%]
COc1cc2nn([C@H]3CC[C@H](O)CC3)cc2cc1NC(=O)c1cccc(C(F)(F)F)n1 [MY-004-127-1] | > 30 | > 30 | > 30 | > 30 |  | 83.28
